Laboratory results published in patent US12728111B2, “Electrophilic compounds and electrophilic prodrugs for treating aneurysm” (University of Pittsburgh—Of the Commonwealth System of …, priority 2020, dated 2026).

How the values were obtained:
[1] = test system: leukocyte/macrophage infiltration in the vasculature; experiment: FACS of single cells from mouse suprarenal aorta; assay type: in vivo; conditions: mean±SEM
Excerpt: FIG. 2. […] (A) Quantification of gene expression levels in the mice suprarenal aorta region by real-time PCR (n=3 to 4). (B, C) Serum cytokines levels measured by ELISA (n=8 to 11). (D) FACS of single cells isolated from the mice suprarenal aorta region. Each sample is the pool of cells from three mice (n=3). (E, F) Quantification of the percentage of CD45+ leukocytes and CD64+, CD11c+M1-like macrophages in total cells from the FACS analysis. Ordinary one-way ANOVA followed by Tukey's test was performed for (A), (E) and (F). For ELISA in (B) and (C), to avoid the effect of the non-detected data point, a non-parametric Kruskal-Wallis test followed by Dunn's multiple comparisons was performed by adding zero to the missing data point. Data presented as mean±SEM. A p<0.05 for both the main test and post hoc test was considered statistically significant.
The suprarenal aorta region from euthanized mice were completely perfused with PBS containing 2% of heparin. Tissues were digested using a cocktail of 450 U/mL collagenase type I (#17100-017, Gibco), 125 U/mL collagenase type XI (#C7657, Sigma-Aldrich), 60 U/mL hyaluronidase type I-s (#H3606, Sigma-Aldrich) and 60 U/mL DNase-I (#10104159001, Roche) at 37° C. for 90 minutes. Single cells filtered through a 70 μm cell strainer were blocked by Fc block (#14-0161-85, eBioscience) for 5 minutes on ice. […] Data were analyzed using FlowJo v10.6.1.

[2] = test system: oxLDL-induced Il1b and Mmp9 expression in BMDMs; experiment: Real-time PCR of oxLDL-induced pro-inflammatory genes in BMDMs; assay type: cell-based, mouse; conditions: BMDMs, vs control
Procedure: FIG. 3. NO2—OA prevents oxLDL-induced NFκB activation and pro-inflammatory cytokine production. Primary BMDMs were pretreated with vehicle, OA (2.5 μM) or NO2—OA (2.5 μM) for 1 h, followed by treatment of oxLDL (50 to 100 μg/ml) for the indicated times. (A, B) Nuclear (A) and cytoplasmic protein (B) fractions were isolated 1 h after oxLDL treatment and subjected to western blot with antibodies against p65, lamin a/c (nuclear marker) and GAPDH (cytosolic marker). Representative western blot images of three independent experiments are shown. (C) Quantification of the p65 nuclear to cytoplasmic ratio by image studio (normalized by the internal control, n=3). (D-F) Following 8 h of oxLDL treatment, levels of IL6, MCP1 and TNFα in the cell medium were measured by ELISA (n=4). (G) Real-time PCR quantification of gene expression levels of IL1b and Mmp9 in total mRNA extracted from the BMDMs. (C) Ordinary one-way ANOVA followed by Tukey's test was performed. As of (D-F), the basal level contains several non-detectable values, so ordinary one-way ANOVA followed by correction of FDR were performed for the oxLDL-treated groups only. Ordinary one-way ANOVA followed by Tukey's test was performed for (G). Data presented as mean±SEM. A p<0.05 for both the main test and post hoc test was considered statistically significant.
Mice suprarenal aortas were collected after the measurement of their diameter. Human aortic aneurysm samples were obtained from the Department of Cardiac Surgery at the University of Michigan. Samples from humans and mice were snap-frozen in liquid nitrogen for later processing. RNA from tissue was extracted using TRIzol (#15596018, Invitrogen). RNA from cells was isolated with the RNeasy Mini Kit (#74106, QIAGEN). SuperScript™ III First-Strand Synthesis System (#18080051, Invitrogen) was used to reverse-transcribe mRNA into cDNA. Gene expression was quantified in triplicates by quantitative real-time PCR (qPCR) using IQ SYBR Green Supermix (#1708882, Bio-Rad) with the indicated gene primers.

[3] = molecular target: T1, EP4 Gs-coupled receptor (Homo sapiens, UniProt P35408); experiment: cAMP HTRF assay in 293T cells overexpressing EP4; assay type: cell-based; conditions: read-out: best-fit IC50, reduction of PGE2-induced recruitment of cAMP
T1 construct: expressed in transfected cells; host or cells: 293T cells
T1 sequence (P35408 whole entry): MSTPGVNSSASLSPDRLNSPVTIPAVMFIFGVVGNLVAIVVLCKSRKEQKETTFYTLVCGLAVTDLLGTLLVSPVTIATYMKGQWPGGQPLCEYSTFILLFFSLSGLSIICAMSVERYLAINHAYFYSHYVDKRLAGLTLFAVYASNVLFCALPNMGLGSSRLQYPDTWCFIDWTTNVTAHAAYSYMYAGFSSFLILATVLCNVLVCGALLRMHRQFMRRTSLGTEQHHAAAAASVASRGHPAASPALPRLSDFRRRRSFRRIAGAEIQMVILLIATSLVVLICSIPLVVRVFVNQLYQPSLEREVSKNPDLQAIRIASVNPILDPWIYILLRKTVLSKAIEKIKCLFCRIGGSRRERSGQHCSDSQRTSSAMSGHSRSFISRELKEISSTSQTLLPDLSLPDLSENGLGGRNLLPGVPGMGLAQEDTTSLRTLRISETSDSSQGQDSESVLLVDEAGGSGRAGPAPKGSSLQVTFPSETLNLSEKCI
Procedure: (§1) FIG. 4. NO2—OA inhibits PGE2-dependent EP4 cAMP downstream signaling. (A) Three parameters nonlinear regression of EP4 global fitting dose-response curve. […] (B) HTRF assay of cAMP-Gs coupled receptor. […] (D) Representative figure of gelatin zymography indicating MMP 2/9 activity. BMDMs were incubated with L-902,688 (100 nM) plus vehicle, OA (2.5 μM) or NO2—OA (2.5 μM) for 12 h, and MMP 2&9 activity was measured by gelatin zymography. For (A) and (B), three or four parameters, global or separate fitting, constraints, and the significance of EC50 were determined in Prism. Data presented as mean±SEM. A p<0.05 was considered statistically significant.
Cells at 80% density were incubated on plates coated with transfection complex containing human EP4 receptors and a cAMP response element-regulated secreted alkaline phosphatase (SEAP) reporter. Activation of EP4 was quantified by adding a luminance-based alkaline phosphatase substrate and read in a chemiluminescence plate reader relative to the kit's standards. EP4 Inhibition assay was performed using cAMP-Gs HiRange kit (#62AM6PEB, Cisbio) following the manufacture's protocol and measured by Neo2 plate reader (BioTek, Winooski, Vt.). HTRF ratio (665/620) was converted to cAMP concentration using a cAMP standard.

[4] = test system: MMP2; experiment: Gelatin zymography in BMDMs, MMP2; assay type: cell-based, mouse; conditions: 2.5 μM, 12 h
Procedure: as §1
Freshly differentiated BMDMs were cultured in the bone marrow macrophage-differentiation media until 80% confluence. […] Then, the supernatant was collected and centrifuged to remove any residual debris. Measurement of MMP2 and MMP9 activity was performed by running the supernatant (using detergent-free loading buffer) in 1% gelatin gel, followed by staining with Coomassie blue.

IC50 [3]: 2800 nM
Compound: CCCCCCCCC(=CCCCCCCCC(=O)O)[N+](=O)[O-] [NO2—OA, 10-nitro-octadec-9-enoic acid]
leucocytes (CD45+) in the vasculature, percentage of total cells [1]: 14.87±3.28% | pro-inflammatory M1 like macrophages (CD64+, CD11c+), percentage of total cells [1]: 3.27±0.42% | oxLDL-induced expression of Il1b [2]: significantly decreased | oxLDL-induced expression of Mmp9 [2]: significantly decreased | MMP2 activity (gelatin zymography) [4]: no significant changes
